In PMC7700373, “Polyphenolic and Methylxanthine Bioaccessibility of Cocoa Bean Shell Functional Biscuits: Metabolomics Approach and Intestinal Permeability through Caco-2 Cell Models” (Antioxidants, 2020):
Like-named read-outs stand apart in the source and are kept apart here.

Assays:
[1] = Single compound bioaccessibility: LC–HRMS intensities after in vitro gastrointestinal digestion vs other extractions; format: in vitro ADME; conditions: whole sample set, Dig vs Org and No_Dig
Method: Five grams of each sample underwent in vitro gastrointestinal digestion. The simulated digestion was performed following the three-stage model (oral, gastric, and intestinal phases) proposed by the INFOGEST consortium and described by Minekus et al. [13] with the slight modifications described in [14]. Briefly, during the oral phase (2 min), samples were mixed at 37 °C in a SW-20 water bath (Julabo GmbH, Seelbach, Germany) with an electrolyte solution to simulate salivary fluid and with amylase enzyme. Samples then underwent a gastric phase (2 h) in which they were mixed with simulated gastric fluid and pepsin enzyme. Finally, during the intestinal phase (2 h), samples from the gastric phase were mixed with simulated intestinal fluid, bile salts, and pancreatin. Solutions were adjusted to pH 3 and 7 for the gastric and intestinal phases, respectively, with a MICROpH 2002 pH-meter (CRISON, Carpi, Italy), and the digestion process was stopped by bringing the pH down to 5.4. Samples were then centrifuged at 12,500× g and 0 °C for 10 min in a Heraeus megafuge 11R centrifuge (THERMO electron, Chateau-Gontier (France), and the supernatants were filtered through a 0.45 μm CA syringe filters and immediately stored at −20 °C until further analysis. The digestion process was replicated four times for each sample. Digestion blanks in which the whole sample was replaced with 5 mL of water were also prepared in order to monitor the possible contributions of the enzymes and salts employed during in vitro digestion in the subsequent analytic determinations.
Non-digestion extraction was performed to allow a comparison with the samples digested in vitro. This employed the same temperature and time conditions and the same weight and volume ratios. Samples were extracted at 37 °C for 4 h and 2 min (the whole time for the simulated gastrointestinal digestion) with just Milli-Q water and without enzymes or simulated fluids in order to avoid food matrix degradation due to those components. After this, non-digested samples were centrifuged and filtered in the same way as the digested samples.
Characterization of polyphenols and methylxanthines from all the extract types (Org, Dig, and No_Dig) of the samples was performed with an untargeted metabolomics approach by using a rapid-resolution LC system (RRLC) 1200 series (Agilent Technologies, Waldbronn, Germany), including a binary pump, thermostatized autosampler, column oven, and a DAD detector. The RRLC system was coupled to a 6520 series electrospray ionization (ESI) source with a quadrupole time-of-flight (QTOF) mass spectrometer (Agilent Technologies). Compound separation was performed using an InfinityLab Poroshell 120EC-C18 column (2.1 × 100 mm, particle size of 2.7 μm) with a guard column (2.1 × 5 mm) (Agilent Technologies). […]

in vitro = conditions: human, Caco-2
Caco-2 cells = conditions: cited from earlier work; for Papp values: in purified extracts, ref Kosińska et al.

Structure (SMILES)	T2 values relative to T1 values (absorption percentage) (Caco-2 cell monolayers; human)	concentration (log10-intensity) after gastrointestinal digestion in comparison with the other extraction types [1]	Papp (in vitro)	Papp values (Caco-2 cells)	T2 values relative to T1 values (absorption percentage) (Caco-2 cell monolayers)	apparent permeability coefficients (Caco-2 cell monolayers)	apparent permeability (Caco-2 cells)	detection on the basolateral side (Caco-2 cell monolayers)
Oc1cc(O)c2c(c1)O[C@H](c1ccc(O)c(O)c1)[C@H](O)C2 [epicatechin]	1.56-1.86 fold	decreased	3.28 to 30.5 ×10⁻⁶ cm/s	3.38 ×10⁻⁶ cm/s	–	–	–	–
Cn1c(=O)c2c(ncn2C)n(C)c1=O [caffeine, reference compound]	–	slightly decreased	–	–	–	–	–	–
O.Oc1cc(O)c2c(c1)O[C@H](c1ccc(O)c(O)c1)[C@@H](O)C2 [catechin]	–	decreased	–	4.19 ×10⁻⁶ cm/s	1.63-1.78 fold	3.28-30.47 × 10^−6 cm/s	0.8 ×10⁻⁶ cm/s	–
Oc1cc(O)c2c(c1)O[C@H](c1ccc(O)c(O)c1)[C@H](O)[C@H]2c1c(O)cc(O)c2c1O[C@H](c1ccc(O)c(O)c1)[C@@H](O)C2 [PCB1, procyanidin B1]	–	higher	–	–	–	–	–	not detected
